Measured values published in patent publication US20090004185A1, “AMINO-SUBSTITUTED QUINAZOLINE DERIVATIVES AS INHIBITORS OF BETA-CATENIN/TCF-4 PATHWAY AND CANCER TREATMENT AGENTS” (WYETH, priority 2007, published 2009).

Columns and labels:
β-catenin/Tcf-4 = experiment: cells; assay type: cell-based; conditions: 24 hours of incubation with compound, ratio Firefly/Renilla luciferase
In short: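 SW480-derived lines with integrated reporters (Tcf-4-driven firefly luciferase; SV40 firefly as specificity control; SV40 Renilla for cell number/toxicity), treated 24 hours with titrated compounds, final 0.316% DMSO. Dual-luciferase read-out; firefly/Renilla ratio as % of control, duplicate plates, IC50 (nM) from curve fit.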

SV40-Luc = SV40-Luc control luciferase reporter assay, SV 5A8 cell line (SV40-Luc and SV40-R-Luc), control for non-specific inhibitors; assay type: cell-based, human; conditions: SV 5A8 cells derived from SW480, 24 hours of incubation with compound, ratio Firefly/Renilla luciferase
In short: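 Dual-luciferase readout in SW480 lines with chromosomally integrated reporters, namely Tcf-4-driven firefly in Tcf 33.13 and Tcf 22C11, and SV40-driven firefly in SV 5A8, all with SV40-Renilla. Compound incubation is 24 h; IC50 comes from the normalised F/R ratio.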

[1] = Homo sapiens, SW480, 24 h, Tcf 33.13 cells derived from SW480
[2] = Homo sapiens, Tcf22C11, 24 h, Tcf 22C11 cells derived from SW480
[3] = Tcf 22C11 cells derived from SW480
[4] = Tcf 33.13 cells derived from SW480

SMILES | IC50 (β-catenin/Tcf-4; [1]) [nM] | IC50 (β-catenin/Tcf-4; [2]) [nM] | IC50 (SV40-Luc; Homo sapiens, SV5A8, 24 h) [nM] | IC50 (β-catenin/Tcf-4; [3]) [nM] | IC50 (β-catenin/Tcf-4; [4]) [nM] | IC50 (SV40-Luc) [nM]
CCN(CC)c1nc(NCc2ccc(NC(=O)c3ccc(Cl)cc3)cc2)c2cc(C(F)(F)F)ccc2n1 [Example 165, 4-chloro-N-[4-({[2-(diethylamino)-6-(trifluoromethyl)quinazolin-4-yl]amino}methyl)phenyl]benzamide] | 5430 | 9640 | > 9470 | – | – | –
C=Cc1cccc(-c2ccc3nc(N(C)C)nc(NCc4ccc(C(=O)Nc5ccc(F)cc5)cc4)c3c2)c1 [Example 172] | – | – | – | 397 | 308 | > 2830
Cc1ccc2c(NCc3ccc(NC(=O)C4CCN(Cc5ccccc5)CC4)cc3)nc(N3CCC(N4CCCC4)CC3)nc2c1 [Example 135, 1-benzyl-N-[4-({[7-methyl-2-(4-pyrrolidin-1-ylpiperidin-1-yl)quinazolin-4-yl]amino}methyl)phenyl]piperidine-4-carboxamide] | 853 | 965 | > 8090 | – | – | –
Cc1ccc2c(NCc3ccc(NC(=O)C4CCN(Cc5ccc(F)cc5F)CC4)cc3)nc(N(C)C)nc2c1 [Example 254, 1-(2,4-difluorobenzyl)-N-[4-({[2-(dimethylamino)-7-methylquinazolin-4-yl]amino}methyl)phenyl]piperidine-4-carboxamide] | 85 | 168 | > 4590 | – | – | –
O=C(Nc1ccc(CNc2nc(NC3CCCC3)nc3ccccc23)cc1)c1ccc(F)cc1 [Example 120, N-[4-({[2-(cyclopentylamino)quinazolin-4-yl]amino}methyl)phenyl]-4-fluorobenzamide] | 795 | 850 | > 1370 | – | – | –
CN(C)c1nc(NCc2ccc(NC(=O)Nc3ccc(F)cc3)cc2)c2ccccc2n1 [Example 182, N-[4-({[2-(dimethylamino)quinazolin-4-yl]amino}methyl)phenyl]-N′-(4-fluorophenyl)urea] | 4320 | 4280 | > 11600 | – | – | –
CNc1nc(N[C@@H](C)c2ccc(NC(=O)c3ccc(F)cc3)cc2)c2cccc(C)c2n1 [Example 275, (S)-4-fluoro-N-(4-(1-(8-methyl-2-(methylamino)quinazolin-4-ylamino)ethyl)phenyl)benzamide] | 549 | 522 | > 1240 | – | – | –
CCOC(=O)N1CCN(c2nc(NCc3ccc(NC(=O)c4ccc(F)cc4)cc3)c3ccc(C)cc3n2)CC1 [Example 218, ethyl 4-[4-({4-[(4-fluorobenzoyl)amino]benzyl}amino)-7-methylquinazolin-2-yl]piperazine-1-carboxylate] | 939 | 1280 | > 15200 | – | – | –
O=C(Nc1ccc(CNc2nc(N3CCCCC3)nc3ccccc23)cc1)c1ccc(F)cc1 [Example 123, 4-fluoro-N-(4-{[(2-piperidin-1-ylquinazolin-4-yl)amino]methyl}phenyl)benzamide] | 2930 | 5850 | > 11000 | – | – | –
CCN(CC)c1nc(NCc2ccc(NC(=O)C3CCN(Cc4ccc(F)cc4)CC3)cc2)c2cc(C(F)(F)F)ccc2n1 [Example 158, N-[4-({[2-(diethylamino)-6-(trifluoromethyl)quinazolin-4-yl]amino}methyl)phenyl]-1-(4-fluorobenzyl)piperidine-4-carboxamide] | 3850 | > 4110 | > 8210 | – | – | –
C#Cc1ccc2c(NCc3ccc(NC(=O)c4ccc(F)cc4)cc3)nc(N(C)C)nc2c1 [Example 108, N-[4-({[2-(dimethylamino)-7-ethynylquinazolin-4-yl]amino}methyl)phenyl]-4-fluorobenzamide] | 236 | 508 | > 5250 | – | – | –
Cc1ccc2c(NCc3ccc(NC(=O)c4ccc(Cl)cc4)cc3)nc(N(C)C)nc2c1 [Example 196, 4-chloro-N-[4-({[2-(dimethylamino)-7-methyl-quinazolin-4-yl]amino}methyl)phenyl]benzamide] | 227 | 223 | > 1400 | – | – | –
Cc1ccc2c(N[C@H](C)c3ccc(NC(=O)c4ccc(Cl)nc4)cc3)nc(N(C)C)nc2c1 [Example 270, (R)-6-chloro-N-(4-(1-(2-(dimethylamino)-7-methylquinazolin-4-ylamino)ethyl)phenyl)nicotinamide] | 372 | 429 | > 10100 | – | – | –
Cc1ccc2c(NCc3ccc(NC(=O)C4CCN(Cc5cccc(F)c5)CC4)cc3)nc(N(C)C)nc2c1 [Example 261, N-[4-({[2-(dimethylamino)-7-methylquinazolin-4-yl]amino}methyl)phenyl]-1-(3-fluorobenzyl)piperidine-4-carboxamide] | 328 | 347 | > 4170 | – | – | –
Cc1cccc2c(N[C@@H](C)c3ccc(NC(=O)c4ccc(Cl)nc4)cc3)nc(N(C)C)nc12 [Example 273, (S)-6-chloro-N-(4-(1-(2-(dimethylamino)-8-methylquinazolin-4-ylamino)ethyl)phenyl)nicotinamide] | 3950 | > 2340 | > 9360 | – | – | –
CCN1CCN(c2nc(NCc3ccc(NC(=O)c4ccc(F)cc4)cc3)c3cc(C)ccc3n2)CC1 [Example 57, N-[4-({[2-(4-ethylpiperazin-1-yl)-6-methylquinazolin-4-yl]amino}methyl)phenyl]-4-fluorobenzamide] | 1600 | 923 | > 10000 | – | – | –
CN(C)c1nc(NCc2ccc(C(=O)Nc3ccc(F)cc3)cc2)c2cc(/C=C/C(C)(C)C)ccc2n1 [Example 176] | – | – | – | 556 | 425 | > 4680
COC(=O)c1ccc2nc(N(C)C)nc(NCc3ccc(NC(=O)c4ccc(F)cc4)cc3)c2c1 [Example 70, methyl 2-(dimethylamino)-4-({4-[(4-fluorobenzoyl)amino]benzyl}amino)quinazoline-6-carboxylate] | 1480 | 2140 | > 10600 | – | – | –
Cc1ccc2c(NCc3ccc(NC(=O)C4CCN(Cc5ccc(F)cc5)CC4)cc3)nc(N(C)C)nc2c1 [Example 251, N-[4-({[2-(dimethylamino)-7-methylquinazolin-4-yl]amino}methyl)phenyl]-1-(4-fluorobenzyl)piperidine-4-carboxamide] | 215 | 262 | > 8340 | – | – | –
COc1ccc(CN2CCC(C(=O)Nc3ccc(CNc4nc(N(C)C)nc5cc(C)ccc45)cc3)CC2)cc1 [Example 250, N-[4-({[2-(dimethylamino)-7-methylquinazolin-4-yl]amino}methyl)phenyl]-1-(4-methoxybenzyl)piperidine-4-carboxamide] | 213 | 373 | > 9280 | – | – | –
COC[C@@H]1CCCN1c1nc(NCc2ccc(NC(=O)c3ccc(F)cc3)cc2)c2ccc(C)cc2n1 [Example 205, 4-fluoro-N-{4-[({2-[(2S)-2-(methoxymethyl)pyrrolidin-1-yl]-7-methylquinazolin-4-yl}amino)methyl]phenyl}benzamide] | 3150 | > 2500 | > 10000 | – | – | –
CN(C)c1nc(NCc2ccc(NC(=O)c3ccc(Cl)nc3)cc2)c2ccc(I)cc2n1 [Example 110, 6-chloro-N-[4-({[2-(dimethylamino)-7-iodoquinazolin-4-yl]amino}methyl)phenyl]nicotinamide] | 1190 | 1760 | > 16800 | – | – | –
C=Cc1ccc2nc(N(C)C)nc(NCc3ccc(NC(=O)C4CCN(Cc5ccccc5)CC4)cc3)c2c1 [Example 75, 1-benzyl-N-[4-({[2-(dimethylamino)-6-vinylquinazolin-4-yl]amino}methyl)phenyl]-piperidine-4-carboxamide] | 287 | 437 | > 4490 | – | – | –
CNc1nc(NCc2ccc(NC(=O)c3cc(F)cc(F)c3)cc2)c2cc(C)ccc2n1 [Example 41, 3,5-difluoro-N-[4-({[6-methyl-2-(methylamino)quinazolin-4-yl]amino}methyl)phenyl]benzamide] | 1650 | 2320 | > 5770 | – | – | –
O=C(Nc1ccc(CNc2nc(NCc3ccco3)nc3ccccc23)cc1)c1ccc(F)cc1 [Example 124, 4-fluoro-N-{4-[({2-[(2-furylmethyl)amino]quinazolin-4-yl}amino)methyl]phenyl}benzamide] | 332 | 674 | > 1340 | – | – | –
Cc1ccc2c(N[C@@H](C)c3ccc(NC(=O)c4ccc(F)cc4)cc3)nc(N(C)C)nc2c1 [Example 271, (S)—N-(4-(1-(2-(dimethylamino)-7-methylquinazolin-4-ylamino)ethyl)phenyl)-4-fluorobenzamide] | 1080 | 970 | > 5640 | – | – | –
CN(C)c1nc(NCc2ccc(NC(=O)c3ccc(Cl)cc3)cc2)c2cc(C(F)(F)F)ccc2n1 [Example 161, 4-chloro-N-[4-({[2-(dimethylamino)-6-(trifluoromethyl)quinazolin-4-yl]amino}methyl)phenyl]benzamide] | 1520 | 1710 | > 10000 | – | – | –
O=C(Nc1ccc(CNc2nc(N3CCC3)nc3ccc(C(F)(F)F)cc23)cc1)C1CCN(Cc2ccc(F)cc2)CC1 [Example 155, N-[4-({[2-azetidin-1-yl-6-(trifluoromethyl)quinazolin-4-yl]amino}methyl)phenyl]-1-(4-fluorobenzyl)piperidine-4-carboxamide] | 3490 | > 2110 | > 8440 | – | – | –
